# Reference: PMC5998028, “Synthesis, antimicrobial activity and conformational analysis of the class IIa bacteriocin pediocin PA-1 and analogs thereof” (Scientific Reports, 2018)
# Experiment: Stability of the peptide in solution (storage, handling, assays)
# Details: qualitative, relative to Met31-containing pediocin PA-1 3c
smiles,measurement,value
CC[C@H](C)[C@H](NC(=O)[C@H](CS)NC(=O)[C@@H](NC(=O)[C@@H](NC(=O)[C@H](C)NC(=O)[C@H](CCCCN)NC(=O)CNC(=O)[C@H](Cc1c[nH]c2ccccc12)NC(=O)[C@H](CC(=O)O)NC(=O)[C@@H](NC(=O)[C@H](CO)NC(=O)[C@H](CS)NC(=O)[C@H](CO)NC(=O)[C@H](Cc1c[nH]cn1)NC(=O)[C@H](CCCCN)NC(=O)CNC(=O)[C@H](CS)NC(=O)[C@@H](NC(=O)[C@@H](NC(=O)CNC(=O)[C@H](CC(N)=O)NC(=O)CNC(=O)[C@H](Cc1ccc(O)cc1)NC(=O)[C@H](Cc1ccc(O)cc1)NC(=O)[C@@H](N)CCCCN)C(C)C)[C@@H](C)O)C(C)C)[C@@H](C)O)[C@@H](C)O)C(=O)N[C@H](C(=O)N[C@@H](CC(N)=O)C(=O)N[C@@H](CC(N)=O)C(=O)NCC(=O)N[C@@H](C)C(=O)N[C@@H](CC(C)C)C(=O)N[C@@H](C)C(=O)N[C@@H](Cc1c[nH]c2ccccc12)C(=O)N[C@@H](C)C(=O)N[C@H](C(=O)NCC(=O)NCC(=O)N[C@@H](Cc1c[nH]cn1)C(=O)N[C@@H](CCC(N)=O)C(=O)NCC(=O)N[C@@H](CC(N)=O)C(=O)N[C@@H](Cc1c[nH]cn1)C(=O)N[C@@H](CCCCN)C(=O)N[C@@H](CS)C(=O)O)[C@@H](C)O)[C@@H](C)CC [compound 4],"molecular stability / stability in solution during storage, handling and assays",significantly greater
